{"source": "patent US20210325406A1", "about": "(priority 2018, published 2021)", "molecules": {"B1": {"name": "78-nt: 78 nucleotide ssDNA composed of a random sequence (Table 6) (nucleic acid)", "DNA": "AAGCAGACAGGCGGGAAGGTTTTTTTTCTAGAGGGGAATTGTTATCCGCTCACAATTCCCCTATAGTGAGTCGTATTA", "modifications": "DNA, backbone and methylation of C not given here"}}, "key": {"Au(III) embedded MspA-M [1]": {"molecular_target": "T1, Au(III) embedded MspA-M (Mycolicibacterium smegmatis, UniProt A0QR29, D117N/D118M/D120N/D145R/D161R/E166K)", "T1 sequence (A0QR29 28-211 D117N/D118M/D120N/D145R/D161R/E166K limits assumed)": "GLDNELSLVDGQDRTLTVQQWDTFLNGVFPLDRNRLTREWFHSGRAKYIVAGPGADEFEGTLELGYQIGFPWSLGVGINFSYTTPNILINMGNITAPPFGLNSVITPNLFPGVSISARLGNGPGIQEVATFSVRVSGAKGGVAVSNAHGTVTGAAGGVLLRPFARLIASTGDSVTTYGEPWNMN", "assay_type": "binding"}, "Au(III) embedded MspA-M [2]": {"molecular_target": "T1, Au(III) embedded MspA-M", "assay_type": "binding", "remark": "listed apart in the source"}, "[3]": {"molecular_target": "[AuCl4]− embedded MspA-M nanopore (Mycolicibacterium smegmatis, UniProt A0QR29, D117N/D118M/D120N/D145R/D161R/E166K)", "sequence (A0QR29 28-211 D117N/D118M/D120N/D145R/D161R/E166K)": "as the sequence (A0QR29 28-211 D117N/D118M/D120N/D145R/D161R/E166K limits assumed) above"}}, "note": "Values joined by “and” are separate entries in the source; they are usually repeats but may differ in a detail not shown here. Equal entries are not always repeated. “Also recorded” adds a separate entry of the source. Where two headings read alike, the source gives them in different places."}
{"molecule": "N[C@@H](CCS)C(=O)O", "note": "[L-Homocysteine, L-homocysteine]", "values": [{"measurement": "ΔI0−1, Hcy/I0", "setting": "Au(III) embedded MspA-M [1]", "value": "0.13±0.01 and 0.123 ± 0.01 and 0.129 ± 0.01 and 0.131 ± 0.01"}, {"measurement": "ΔI1−1, Hcy", "setting": "Au(III) embedded MspA-M [1]", "value": "21.8 pA and 22.7 pA and 23.6 pA"}]}
{"molecule": "N[C@@H](CS)C(=O)O", "note": "[L-Cysteine, L-cysteine]", "values": [{"measurement": "ΔI0−1, cys/I0", "setting": "Au(III) embedded MspA-M [1]", "value": "0.104±0.008 and 0.105 ± 0.008 and 0.104 ± 0.007"}, {"measurement": "ΔI1−1, Cys", "setting": "Au(III) embedded MspA-M [1]", "value": "13.7 pA and 13.1 pA and 14.2 pA"}]}
{"molecule": "N[C@@H](CCC(=O)N[C@@H](CS)C(=O)NCC(=O)O)C(=O)O", "note": "[L-Glutathione, L-glutathione]", "values": [{"measurement": "ΔI0−1, GSH/I0", "setting": "Au(III) embedded MspA-M [1]", "value": "0.167 ± 0.023 and 0.151 ± 0.015 and 0.145 ± 0.015"}, {"measurement": "ΔI1−1, GSH", "setting": "Au(III) embedded MspA-M [1]", "value": "23.3 pA and 29.2 pA and 25.1 pA"}]}
{"molecule": "NCC(=O)O", "note": "[L-glycine, reference compound]", "values": [{"measurement": "events like state 3 / extra sensing signals", "setting": "Au(III) embedded MspA-M [2]", "value": "No extra sensing signals; also recorded: no events at all like state 3"}]}
{"molecule": "NC(=O)C[C@H](N)C(=O)O", "note": "[L-asparagine, reference compound]", "values": [{"measurement": "events like state 3 / extra sensing signals", "setting": "Au(III) embedded MspA-M [2]", "value": "No extra sensing signals; also recorded: no events at all like state 3"}]}
{"molecule": "CSCC[C@H](N)C(=O)O", "note": "[L-Methionine, L-methionine]", "values": [{"measurement": "absolute blockage amplitude from single L-methionine", "setting": "Au(III) embedded MspA-M [2]", "value": "approximately 37 pA"}, {"measurement": "amplitude, times larger than previously reported amino acid sensing using engineered α-HL", "setting": "Au(III) embedded MspA-M [2]", "value": "about 10 times"}, {"measurement": "dwell time of state 3, three independent measurements", "setting": "Au(III) embedded MspA-M [2]", "value": "10.05 ± 1.73", "unit": "ms"}, {"measurement": "ΔI1-3, three independent measurements", "setting": "Au(III) embedded MspA-M [2]", "value": "48.67±0.91", "unit": "pA"}]}
{"molecule": "B1", "values": [{"measurement": "ΔI/I0", "setting": "[3]; 78-nt ssDNA 4 μM, 10 μM HAuCl4, +100 mV, Blockade level 0", "value": "0.23 ± 0.027"}, {"measurement": "Mean dwell time", "setting": "[3]; 78-nt, Blockade level 0", "value": "0.23 ± 0.025", "unit": "ms"}, {"measurement": "Mean dwell time", "setting": "[3]; 78-nt, Blockade level 1", "value": "0.97 ± 0.17", "unit": "ms"}, {"measurement": "ΔI/I0", "setting": "[3]; 78-nt, Blockade level 1", "value": "0.37 ± 0.042"}, {"measurement": "Mean dwell time", "setting": "[3]; 78-nt, Blockade level 2", "value": "5.52 ± 1.14", "unit": "ms"}, {"measurement": "ΔI/I0", "setting": "[3]; 78-nt, Blockade level 2", "value": "0.59 ± 0.019"}, {"measurement": "Mean dwell time", "setting": "[3]; 78-nt, Blockade level 3", "value": "72.81 ± 13.98", "unit": "ms"}, {"measurement": "ΔI/I0", "setting": "[3]; 78-nt, Blockade level 3", "value": "0.88 ± 0.035"}]}
